Source: patent US11542492B2 (Celgene CAR LLC, priority 2009, dated 2023)

Legend:
Format in all cases: biochemical
[1] = target: T1, p110α/p85α (PI3Kα) (Homo sapiens, UniProt P42336); experiment: HTRF assay, p110α/p85α; details: read-out: PI3Kα-HTRF-IC50 nM Inhibition Designation
T1 construct: purchased BPS Bioscience or Millipore 40620 (BPS Bioscience) or 14-602 (Millipore)
Method: HTRF Assay Protocol for Potency Assessment Against the Active Form of p110α/p85α:
(§1) The mechanics of the assay platform are best described by the vendor (Millipore, Billerica, Mass.) on their website at the following URL: http://www.millipore.com/coa/tech1/74jt4z.
(§2) Briefly, Stop solution (Stop A, #33-007 and Stop B, #33-009; 3:1 ratio) and Detection Mix (DMC, #33-015 with DMA, #33-011 and DMB, #33-013; 18:1:1 ratio) were prepared as recommended by the manufacturer ˜2 hrs prior to use. […] Lipid kinase reactions were started with the addition of 5 μL of ATP solution, mixed for 15 sec on a rotary plate shaker and incubated for 15-30 minutes at 25° C. Next, reactions were stopped with a 5 μL addition of Stop solution followed by a 5 μL volume of Detection Mix. […] At the conclusion of each assay, the HTRF ratio from fluorescence emission values for each well was calculated and % Inhibition determined from averaged controls wells. % Inhibition values for each compound re then plotted against inhibitor concentration to estimate IC50 from log [Inhibitor] vs Response, Variable Slope model in GraphPad Prism from GraphPad Software (San Diego, Calif.).

[2] = target: T2, p120γ (PI3Kγ) (Homo sapiens, UniProt P48736); experiment: HTRF assay, p120γ; details: PI3Kγ; read-out: PI3Kγ HTRF IC50 Inhibition Designation
T2 construct: purchased BPS Bioscience 40625
T2 sequence (P48736 whole entry): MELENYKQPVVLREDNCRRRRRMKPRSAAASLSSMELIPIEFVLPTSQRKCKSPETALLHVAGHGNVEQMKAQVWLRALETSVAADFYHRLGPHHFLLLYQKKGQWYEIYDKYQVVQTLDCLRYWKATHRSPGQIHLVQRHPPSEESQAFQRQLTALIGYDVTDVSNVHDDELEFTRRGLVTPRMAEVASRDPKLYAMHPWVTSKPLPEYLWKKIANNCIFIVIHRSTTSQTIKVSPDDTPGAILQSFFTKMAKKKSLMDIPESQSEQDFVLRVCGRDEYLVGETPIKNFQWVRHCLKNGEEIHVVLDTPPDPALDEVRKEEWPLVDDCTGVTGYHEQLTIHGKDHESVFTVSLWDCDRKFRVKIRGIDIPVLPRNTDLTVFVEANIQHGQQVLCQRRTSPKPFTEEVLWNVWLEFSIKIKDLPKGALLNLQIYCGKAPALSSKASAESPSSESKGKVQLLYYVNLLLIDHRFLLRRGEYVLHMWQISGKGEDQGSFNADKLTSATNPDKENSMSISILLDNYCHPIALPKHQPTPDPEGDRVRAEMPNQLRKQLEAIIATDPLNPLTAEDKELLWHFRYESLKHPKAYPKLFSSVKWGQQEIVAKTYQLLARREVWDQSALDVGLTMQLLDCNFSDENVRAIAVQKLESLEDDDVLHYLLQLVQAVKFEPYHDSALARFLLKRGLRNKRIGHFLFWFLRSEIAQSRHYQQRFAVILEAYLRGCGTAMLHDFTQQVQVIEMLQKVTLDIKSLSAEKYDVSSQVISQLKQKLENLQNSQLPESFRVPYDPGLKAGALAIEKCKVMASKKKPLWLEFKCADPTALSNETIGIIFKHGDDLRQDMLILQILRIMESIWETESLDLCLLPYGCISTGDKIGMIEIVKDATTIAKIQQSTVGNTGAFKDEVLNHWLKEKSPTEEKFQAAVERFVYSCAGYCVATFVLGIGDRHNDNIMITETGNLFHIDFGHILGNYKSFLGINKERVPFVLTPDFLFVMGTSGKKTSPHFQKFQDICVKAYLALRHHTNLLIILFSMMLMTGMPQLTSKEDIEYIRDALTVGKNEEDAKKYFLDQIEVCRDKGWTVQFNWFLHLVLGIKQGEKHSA
Excerpt: The protocol below describes an end-point, competition-binding HTRF assay used to measure inherent potency of test compounds against active p110α/p85α, p110β/p85α, p120γ enzymes. The mechanics of the assay platform are best described by the vendor (Millipore, Billerica, Mass.) on their website at the following URL: http://www.millipore.com/coa/tech1/74jt4z.
Briefly, Stop solution (Stop A, #33-007 and Stop B, #33-009; 3:1 ratio) and Detection Mix (DMC, #33-015 with DMA, #33-011 and DMB, #33-013; 18:1:1 ratio) were prepared as recommended by the manufacturer ˜2 hrs prior to use. Additionally, 1× reaction buffer (4× buffer stock #33-003), a 1.4× stock of enzyme from BPS Bioscience (San Diego, Ca) or Millipore (Billerica, Mass.) with di-C8-PIP2 lipid substrate (#33-005), and a 4×ATP solution (#A7699) Sigma/Aldrich (St. Louis, Mo.) were prepared in 1×reaction buffer. 15 μL of enzyme and lipid substrate mix were pre-incubated in a Corning (#3573) 384-well, black, non-treated microtiter plate (Corning, N.Y.) for 30 min at 25° C. with a 0.5 μL volume of 50% DMSO and serially diluted compounds prepared in 50%-75% DMSO. Lipid kinase reactions were started with the addition of 5 μL of ATP solution, mixed for 15 sec on a rotary plate shaker and incubated for 15-30 minutes at 25° C. Next, reactions were stopped with a 5 μL addition of Stop solution followed by a 5 μL volume of Detection Mix. Stopped reactions were equilibrated for 1 and 18 hrs at room temperature and then read in a Synergy4 plate reader from BioTek (Winooski, Vt.) at λex330-80/λem620-35 and λem665-7.5. At the conclusion of each assay, the HTRF ratio from fluorescence emission values for each well was calculated and % Inhibition determined from averaged controls wells. % Inhibition values for each compound re then plotted against inhibitor concentration to estimate IC50 from log [Inhibitor] vs Response, Variable Slope model in GraphPad Prism from GraphPad Software (San Diego, Calif.).
Reagents Used in Optimized Protocol: • [p120γ]=1-4 nM, [ATP]=50 μM, [di-C8-PIP2]=10 μM • (40625; BPS Bioscience)

[3] = target: T3, p110β/p85α (PI3Kβ) (Homo sapiens, UniProt P42338); experiment: HTRF assay, p110β/p85α; details: read-out: PI3Kβ HTRF IC50 Inhibition Designation
T3 construct: purchased Millipore 14-603
T3 sequence (P42338 whole entry): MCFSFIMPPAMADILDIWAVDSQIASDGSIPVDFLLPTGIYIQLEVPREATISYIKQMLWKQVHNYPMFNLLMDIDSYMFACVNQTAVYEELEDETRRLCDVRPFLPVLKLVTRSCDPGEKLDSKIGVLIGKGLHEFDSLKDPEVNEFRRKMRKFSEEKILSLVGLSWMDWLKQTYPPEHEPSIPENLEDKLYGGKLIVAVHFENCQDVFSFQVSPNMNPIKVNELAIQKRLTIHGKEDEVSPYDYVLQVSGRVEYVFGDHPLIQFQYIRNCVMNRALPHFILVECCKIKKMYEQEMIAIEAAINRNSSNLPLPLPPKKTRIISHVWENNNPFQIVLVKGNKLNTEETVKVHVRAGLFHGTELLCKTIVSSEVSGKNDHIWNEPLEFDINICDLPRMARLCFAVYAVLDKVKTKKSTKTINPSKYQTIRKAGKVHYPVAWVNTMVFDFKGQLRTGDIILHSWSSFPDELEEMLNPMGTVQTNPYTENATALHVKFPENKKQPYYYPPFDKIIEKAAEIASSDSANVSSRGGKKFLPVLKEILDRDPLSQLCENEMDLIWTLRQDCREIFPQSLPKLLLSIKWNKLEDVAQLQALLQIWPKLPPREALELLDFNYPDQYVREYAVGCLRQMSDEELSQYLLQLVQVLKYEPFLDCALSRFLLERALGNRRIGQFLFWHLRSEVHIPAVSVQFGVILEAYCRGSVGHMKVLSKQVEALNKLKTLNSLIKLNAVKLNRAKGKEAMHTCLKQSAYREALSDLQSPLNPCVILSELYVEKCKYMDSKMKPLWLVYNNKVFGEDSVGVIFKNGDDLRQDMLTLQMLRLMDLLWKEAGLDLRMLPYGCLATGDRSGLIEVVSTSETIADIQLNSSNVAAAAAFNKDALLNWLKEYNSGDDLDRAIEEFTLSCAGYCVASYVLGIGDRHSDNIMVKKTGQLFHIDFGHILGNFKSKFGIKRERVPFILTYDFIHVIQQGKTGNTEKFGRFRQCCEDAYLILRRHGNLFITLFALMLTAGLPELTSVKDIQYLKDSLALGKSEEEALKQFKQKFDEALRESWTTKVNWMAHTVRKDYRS
T3 sequence (P27986 whole entry partner): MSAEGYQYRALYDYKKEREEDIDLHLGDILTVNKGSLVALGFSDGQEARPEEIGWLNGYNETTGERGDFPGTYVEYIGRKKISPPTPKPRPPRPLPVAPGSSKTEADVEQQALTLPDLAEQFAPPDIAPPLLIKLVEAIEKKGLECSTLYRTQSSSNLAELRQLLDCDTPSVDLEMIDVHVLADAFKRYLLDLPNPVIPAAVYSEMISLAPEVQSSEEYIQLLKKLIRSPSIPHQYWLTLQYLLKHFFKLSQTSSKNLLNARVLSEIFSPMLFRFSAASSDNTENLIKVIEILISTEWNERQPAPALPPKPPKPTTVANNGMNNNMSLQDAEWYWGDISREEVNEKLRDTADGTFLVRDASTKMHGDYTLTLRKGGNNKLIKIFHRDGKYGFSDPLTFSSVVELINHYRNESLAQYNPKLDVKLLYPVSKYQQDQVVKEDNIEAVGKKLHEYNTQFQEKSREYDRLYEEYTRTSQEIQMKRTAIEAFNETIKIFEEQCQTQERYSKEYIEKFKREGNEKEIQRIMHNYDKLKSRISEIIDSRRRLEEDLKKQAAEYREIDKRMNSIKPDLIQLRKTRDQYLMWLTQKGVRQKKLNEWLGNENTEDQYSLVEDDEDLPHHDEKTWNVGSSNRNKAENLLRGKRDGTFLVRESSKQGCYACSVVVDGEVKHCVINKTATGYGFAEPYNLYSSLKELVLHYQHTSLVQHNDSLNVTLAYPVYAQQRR
Method: as §1, §2

[4] = target: T4, HCV NS3/4A 1b protease enzyme (wild type) (Hepatitis C virus genotype 1b, UniProt P26663); experiment: HCV protease FRET assay (IC50_APP), wild type NS3/4A 1b
T4 construct: 10× stocks of NS3/4A protease enzyme from Bioenza (Mountain View, Calif.); purchased Bioenza
T4 sequence (P26663 1658-1711): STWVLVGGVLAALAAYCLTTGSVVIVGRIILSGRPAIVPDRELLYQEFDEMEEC
T4 sequence (P26663 1027-1657): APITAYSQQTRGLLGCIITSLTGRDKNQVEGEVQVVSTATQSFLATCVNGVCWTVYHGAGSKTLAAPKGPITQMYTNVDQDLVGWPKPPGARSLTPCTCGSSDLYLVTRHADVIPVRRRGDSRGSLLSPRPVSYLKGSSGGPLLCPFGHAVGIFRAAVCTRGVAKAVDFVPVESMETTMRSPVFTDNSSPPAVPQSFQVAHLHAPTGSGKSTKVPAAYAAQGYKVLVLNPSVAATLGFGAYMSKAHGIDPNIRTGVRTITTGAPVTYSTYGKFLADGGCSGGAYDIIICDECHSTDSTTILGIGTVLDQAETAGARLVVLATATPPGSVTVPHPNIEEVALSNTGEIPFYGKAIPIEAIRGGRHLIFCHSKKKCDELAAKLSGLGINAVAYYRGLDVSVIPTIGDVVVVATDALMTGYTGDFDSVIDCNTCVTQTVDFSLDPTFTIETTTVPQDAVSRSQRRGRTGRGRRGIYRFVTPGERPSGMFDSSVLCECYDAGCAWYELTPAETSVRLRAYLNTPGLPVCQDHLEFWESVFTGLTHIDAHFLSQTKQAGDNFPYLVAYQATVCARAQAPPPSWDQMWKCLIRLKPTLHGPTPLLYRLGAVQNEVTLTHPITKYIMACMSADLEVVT
Method: HCV Protease FRET Assay for WT and Mutated NS3/4A 1b Enzymes (IC50_APP).
The following protocol was used to generate “apparent” IC50 (IC50_APP) values as depicted in Table 6, below. Without wishing to be bound by any particular theory, it is believed that IC50_APP, contrasted with IC50 values, may provide a more useful indication of time-dependent inhibition, and are thus more representative of binding affinity. […] 5 μL of each enzyme were added to Corning (#3575) 384-well, black, microtiter plates (Corning, N.Y.) after spotting a 0.5 μL volume of 50% DMSO and serially diluted compounds prepared in 50% DMSO. Protease reactions were immediately started after enzyme addition with the addition of 45 μL of the FRET substrate and monitored for 60-90 minutes at λex485/λem520 in a Synergy plate reader from BioTek (Winooski, Vt.). At the conclusion of each assay, progress curves from each well were examined for linear reaction kinetics and fit statistics (R^2, 95% confidence intervals, absolute sum of squares). Initial velocity (0 minutes to 15+ minutes) from each reaction was determined from the slope of a plot of relative fluorescence units vs time (minutes) and then plotted against inhibitor concentration as a percent of the no inhibitor and no enzyme controls to estimate apparent IC50 from log [Inhibitor] vs Response. (Variable Slope model in GraphPad Prism from GraphPad Software (San Diego, Calif.).)

T1 sequence (P42336 whole entry): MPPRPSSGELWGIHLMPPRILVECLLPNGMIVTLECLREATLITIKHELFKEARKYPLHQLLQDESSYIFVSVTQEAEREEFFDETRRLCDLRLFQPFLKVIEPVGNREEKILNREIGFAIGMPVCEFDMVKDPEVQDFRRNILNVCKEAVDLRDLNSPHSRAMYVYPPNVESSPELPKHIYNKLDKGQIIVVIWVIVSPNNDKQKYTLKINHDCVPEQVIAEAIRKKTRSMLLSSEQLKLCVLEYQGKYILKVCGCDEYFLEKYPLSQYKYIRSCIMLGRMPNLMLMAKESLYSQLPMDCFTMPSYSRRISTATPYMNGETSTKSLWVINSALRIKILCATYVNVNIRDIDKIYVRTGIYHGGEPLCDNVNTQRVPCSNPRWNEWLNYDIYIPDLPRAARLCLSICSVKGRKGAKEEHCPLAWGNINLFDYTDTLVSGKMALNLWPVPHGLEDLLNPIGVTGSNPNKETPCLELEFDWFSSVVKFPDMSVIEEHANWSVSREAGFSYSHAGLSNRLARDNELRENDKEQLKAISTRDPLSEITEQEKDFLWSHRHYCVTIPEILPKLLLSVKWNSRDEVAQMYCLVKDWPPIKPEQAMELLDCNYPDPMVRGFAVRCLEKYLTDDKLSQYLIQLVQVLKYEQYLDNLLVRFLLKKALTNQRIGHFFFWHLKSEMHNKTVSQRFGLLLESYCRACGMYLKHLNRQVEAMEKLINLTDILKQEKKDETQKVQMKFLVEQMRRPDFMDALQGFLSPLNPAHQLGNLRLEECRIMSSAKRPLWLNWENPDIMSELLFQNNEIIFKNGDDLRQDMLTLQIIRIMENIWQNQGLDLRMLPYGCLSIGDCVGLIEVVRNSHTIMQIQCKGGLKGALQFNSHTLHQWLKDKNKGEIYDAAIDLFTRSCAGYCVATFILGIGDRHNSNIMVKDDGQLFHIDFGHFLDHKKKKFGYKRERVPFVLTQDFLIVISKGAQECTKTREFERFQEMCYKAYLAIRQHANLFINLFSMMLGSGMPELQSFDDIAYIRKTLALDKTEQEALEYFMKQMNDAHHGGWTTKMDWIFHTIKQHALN
T1 sequence (P27986 whole entry partner): as the sequence (P27986 whole entry partner) above

| SMILES | IC50 [1] [nM] | IC50 [2] [nM] | IC50 [3] [nM] | IC50 [4] [nM] |
| --- | --- | --- | --- | --- |
| CC(=O)CC(=O)N1CCN(Cc2cc3nc(-c4cccc5[nH]ncc45)nc(N4CCOCC4)c3s2)CC1 [XXII-14] | 10 to 100 |  |  |  |
| C=CC(=O)N1CCN(Cc2cc3nc(-c4ccccc4)nc(N4CCOCC4)c3s2)CC1 [XXII-19] | 1000 to 10000 |  |  |  |
| CC1(C)Cc2nc(N3CCOc4ccc(NC(=O)[C@@H]5CCC(=O)O5)cc43)sc2C(=O)N1 [XXIII-1] | 100 to 1000 | 100 to 1000 |  |  |
| COc1c(OCCCC(=O)N2C[C@@H]3C[C@H]2C(=O)O3)ccc2c1N=C(NC(=O)c1cccnc1)N1CCN=C21 [XXVII-14, N-(7-methoxy-8-(4-oxo-4-((1S,4S)-3-oxo-2-oxa-5-azabicyclo[2.2.1]heptan-5-yl)butoxy)-2,3-dihydroimidazo[1,2-c]quinazolin-5-yl)nicotinamide] |  |  | 100 to 1000 |  |
| CC1(C)Cc2nc(N3CCOc4ccc(NC(=O)[C@H]5CCC(=O)O5)cc43)sc2C(=O)N1 [XXIII-2] | 100 to 1000 | 100 to 1000 |  |  |
| C=CC(=O)n1cc(-c2ccc3c(c2)N(c2nc4c(s2)C(=O)NC(C)(C)C4)CCO3)cn1 [XXIII-5, 2-(6-(1-acryloyl-1H-pyrazol-4-yl)-2H-benzo[b][1,4]oxazin-4(3H)-yl)-6,6-dimethyl-6,7-dihydrothiazolo[5,4-c]pyridin-4(5H)-one] | 100 to 1000 |  |  |  |
| COc1ccc(NC(=O)[C@@H]2CCC(=O)O2)cc1-n1c(CSc2ncnc3[nH]cnc23)nc2cccc(Cl)c2c1=O [XXXVII-3, (S)-N-(3-(2-((9H-purin-6-ylthio)methyl)-5-chloro-4-oxoquinazolin-3(4H)-yl)-4-methoxyphenyl)-5-oxotetrahydrofuran-2-carboxamide] |  |  | 100 to 1000 |  |
| O=C1O[C@H]2C[C@@H]1N(Cc1cc(O)cc(-c3nc(N4CCOCC4)c4sccc4n3)c1)C2 [XXII-20] | 100 to 1000 | 1000 to 10000 |  |  |
| CC1(C)Cc2nc(N3CCOc4ccc(C(=O)N5C[C@H]6C[C@@H]5C(=O)O6)cc43)sc2C(=O)N1 [XXIII-3] | 100 to 1000 | 100 to 1000 |  |  |
| COc1c(OCCCC(=O)N2C[C@H]3C[C@@H]2C(=O)O3)ccc2c1N=C(NC(=O)c1cccnc1)N1CCN=C21 [XXVII-13, N-(7-methoxy-8-(4-oxo-4-((1R,4R)-3-oxo-2-oxa-5-azabicyclo[2.2.1]heptan-5-yl)butoxy)-2,3-dihydroimidazo[1,2-c]quinazolin-5-yl)nicotinamide] |  |  | 100 to 1000 |  |
| O=C1CC[C@@H](C(=O)N2CCN(c3ccnc4ccc(/C=C5\SC(Nc6c(Cl)cccc6Cl)=NC5=O)cc34)CC2)O1 [XXIV-2] | 100 to 1000 | 100 to 1000 |  |  |
| C[C@H]1OC(=O)[C@H]1NC(=O)N1CCN(Cc2cc3nc(-c4cccc5[nH]ncc45)nc(N4CCOCC4)c3s2)CC1 [XXII-13] | 100 to 1000 | 100 to 1000 |  |  |
| COc1ncc(-c2ccc3nccc(-c4ccc(C(=O)N5C[C@H]6C[C@@H]5C(=O)O6)cc4)c3c2)cc1NS(=O)(=O)c1ccc(F)cc1F [XXV-15, 2,4-difluoro-N-(2-methoxy-5-(4-(4-((1R,4R)-3-oxo-2-oxa-5-azabicyclo[2.2.1]heptane-5-carbonyl)phenyl)quinolin-6-yl)pyridin-3-yl)benzenesulfonamide] |  |  | < 10 |  |
| COc1ccc(NC(=O)N2C[C@@H]3C[C@H]2C(=O)O3)cc1-n1c(CSc2ncnc3[nH]cnc23)nc2cccc(Cl)c2c1=O [XXXVII-4, (1S,4S)-N-(3-(2-((9H-purin-6-ylthio)methyl)-5-chloro-4-oxoquinazolin-3(4H)-yl)-4-methoxyphenyl)-3-oxo-2-oxa-5-azabicyclo[2.2.1]heptane-5-carboxamide] |  |  | 100 to 1000 |  |
| O=C1CC[C@H](C(=O)N2CCN(c3ccnc4ccc(/C=C5\SC(Nc6c(Cl)cccc6Cl)=NC5=O)cc34)CC2)O1 [XXIV-1] | 10 to 100 | 100 to 1000 |  |  |
| C=CS(=O)(=O)Oc1cccc(-c2nc(N3CCOCC3)c3sc(CN(C)S(=O)(=O)C=C)cc3n2)c1 [XXII-9] | 100 to 1000 | 100 to 1000 |  |  |
| O=C(N1CCN(Cc2cc3nc(-c4cccc5[nH]ncc45)nc(N4CCOCC4)c3s2)CC1)n1ccnc1 [XXII-16, (4-((2-(1H-indazol-4-yl)-4-morpholinothieno[3,2-d]pyrimidin-6-yl)methyl)piperazin-1-yl)(1H-imidazol-1-yl)methanone] | 10 to 100 |  |  |  |
| O=C(N1CCN(Cc2cc3nc(-c4ccccc4)nc(N4CCOCC4)c3s2)CC1)n1ccnc1 [XXII-18] | 1000 to 10000 |  |  |  |
| CC1(C)Cc2nc(N3CCOc4ccc(-c5ccc6occc(=O)c6c5)cc43)sc2C(=O)N1 [XXIII-6] | 100 to 1000 | 100 to 1000 |  |  |
| C=CS(=O)(=O)N1CCN(Cc2cc3nc(-c4cccc5[nH]ncc45)nc(N4CCOCC4)c3s2)CC1 [XXII-8, 4-(2-(1H-indazol-4-yl)-6-((4-(vinylsulfonyl)piperazin-1-yl)methyl)thieno[3,2-d]pyrimidin-4-yl)morpholine] | 100 to 1000 | 100 to 1000 |  |  |
| CC1(C)Cc2nc(N3CCOc4ccc(C(=O)N5C[C@@H]6C[C@H]5C(=O)O6)cc43)sc2C(=O)N1 [XXIII-4, (1S,4S)-5-(4-(6,6-dimethyl-4-oxo-4,5,6,7-tetrahydrothiazolo[5,4-c]pyridin-2-yl)-3,4-dihydro-2H-benzo[b][1,4]oxazine-6-carbonyl)-2-oxa-5-azabicyclo[2.2.1]heptan-3-one] | 100 to 1000 | 100 to 1000 |  |  |
| O=C1CC[C@@H](C(=O)N2CC=C(c3cc4nc(-c5cccc(O)c5)nc(N5CCOCC5)c4s3)CC2)O1 [XXII-1] | 10 to 100 | 100 to 1000 |  |  |
| CC(C)Oc1c(N2CCN(Cc3cc4nc(-c5cccc6[nH]ncc56)nc(N5CCOCC5)c4s3)CC2)c(=O)c1=O [XXII-15] | 10 to 100 | 100 to 1000 |  |  |
| CC1(C)Cc2nc(N3CCOc4ccc(-c5ccc(C(=O)N6C[C@H]7C[C@@H]6C(=O)O7)cc5)cc43)sc2C(=O)N1 [XXIII-7] | 1000 to 10000 | 1000 to 10000 |  |  |
| C=C[C@@H]1C[C@]1(NC(=O)[C@@H]1CC(OC(=O)N2Cc3cccc(F)c3C2)CN1C(=O)[C@H](CNC(=O)[C@@H]1CCC(=O)O1)NC(=O)OC(C)(C)C)C(=O)NS(=O)(=O)C1CC1 (stereo partly drawn) [XVI-21, (5S)-1-((S)-2-(tert-butoxycarbonylamino)-3-((S)-5-oxotetrahydrofuran-2-carboxamido)propanoyl)-5-((1R,2S)-1-(cyclopropylsulfonylcarbamoyl)-2-vinylcyclopropylcarbamoyl)pyrrolidin-3-yl 4-fluoroisoindoline-2-carboxylate] |  |  |  | 1 to 10 |
| C=CC(=O)Nc1cccc(-c2nc(N3CCOCC3)c3sccc3n2)c1 [XXII-21] | 1000 to 10000 | 1000 to 10000 |  |  |
